Values after ≈ are worked out from the molar mass of the structure shown. Values joined by “and” are separate entries in the source; they are usually repeats but may differ in a detail not shown here. Equal entries are not always repeated. Structures can show the parent of a compound that is named as a salt.
Key:
Assay type in all cases: cell-based
[1] = tested on: Pseudomonas aeruginosa Pa01; experiment: MIC determination, strain Pa01; settings: for MIC: read-out: MIC100
Description: (§1) The bacterial inoculum was established by the dilution method from actively-growing cultures in Mueller-Hinton (MH) broth, standardized with 0.5 McFarland turbidity standard as described in the CLSI method M26-A.
(§2) Both the bacterial inoculum and the antimicrobial agents, including the compounds structurally related to cysteamine, were added simultaneously to the plates. The plates were incubated at 37° C. for 24 h and the optical density was read at 625 nm on a microtitre plate reader (BioTek Powerwave XS, Winooski, USA). […]
(§3) A number of compounds related in chemical structure to cysteamine were examined for antimicrobial activity; cystamine (dihydrochloride salt), taurine and 2,3-dimercaptosuccinic acid. Other compounds chemically related to cysteamine are known, but are toxic, and are therefore of no utility in a drug of this nature.

[2] = tested on: Pseudomonas aeruginosa Pa14; experiment: MIC determination, strain Pa14; settings: for MIC: read-out: MIC100
Description: as §1, §2, §3

[3] = tested on: Pseudomonas aeruginosa Pa058; experiment: MIC determination, strain Pa058; settings: for MIC: read-out: MIC100
Description: as §1, §2, §3

[4] = tested on: Pseudomonas aeruginosa NH57388A; experiment: MIC determination, strain NH57388A; settings: for MIC: read-out: MIC100
Description: as §1, §2, §3

[5] = tested on: Pseudomonas aeruginosa Pa01; experiment: FIC index of combinations with conventional antibiotics, strain Pa01; settings: strain Pa01 (Col^R), hydrochloride
Description: as §1
(§4) Both the bacterial inoculum and the antimicrobial agents, including the compounds structurally related to cysteamine, were added simultaneously to the plates. The plates were incubated at 37° C. for 24 h and the optical density was read at 625 nm on a microtitre plate reader (BioTek Powerwave XS, Winooski, USA). The MIC was obtained as the lowest concentration of antimicrobial showing total inhibition of bacterial growth.
(§5) The FIC corresponds to an interaction coefficient indicating whether the combination of antimicrobial agents is synergistic, additive, antagonist or neutral. The FIC is determined by comparing the activity of an agent in combination (MIC of agent A+agent B) with the activity of the agent alone (MIC of agent A or agent B) as follow (Singh et al., 2000): FIC=MICA[combination]/MICA[alone]+MICB[combination]/MICB[alone]
(§6) Additive combinations of two antimicrobial agents are indicated by a FIC index of 1, whereas a FIC index<1 indicates synergistic combinations. Neutral combinations would give a FIC between 1 and 4, a FIC index higher than 4 indicates antagonist effects between the two antimicrobial agents.
(§7) The FIC was also calculated to assess the interaction of two antimicrobial agents in combination against bacterial samples.

[6] = tested on: Pseudomonas aeruginosa Pa14; experiment: FIC index of combinations with conventional antibiotics, strain Pa14; settings: strain Pa14 (Col^R), hydrochloride
Description: as §1, §4, §5, §6, §7

[7] = tested on: Pseudomonas aeruginosa Pa058; experiment: FIC index of combinations with conventional antibiotics, strain Pa058; settings: strain Pa058 (Col^R, Cip^R Tob^R), hydrochloride
Description: as §1, §4, §5, §6, §7

[8] = tested on: Pseudomonas aeruginosa Pa57388A; experiment: FIC index of combinations with conventional antibiotics, strain Pa57388A; settings: strain Pa57388A (Col^R), hydrochloride
Description: as §1, §4, §5, §6, §7

[9] = tested on: Pseudomonas aeruginosa Pa57388D; experiment: FIC index of combinations with conventional antibiotics, strain Pa57388D; settings: strain Pa57388D (Col^R, Gent^R), hydrochloride
Description: as §1, §4, §5, §6, §7

[10] = in combination with Ciprofloxacin

## NCCSSCCN [Cystamine, cystamine]
[1]
  MIC50: 250 to 1000 µg/mL (≈ 1.64 to 6.57 mM)
  MIC90: 1000 to 2000 µg/mL (≈ 6.57 to 13.1 mM)
  MIC: 2000 µg/mL (≈ 13.1 mM)
[2]
  MIC50: 125 to 250 µg/mL (≈ 0.821 to 1.64 mM)
  MIC90: 1000 to 2000 µg/mL (≈ 6.57 to 13.1 mM)
  MIC: 2000 µg/mL (≈ 13.1 mM)
[3]
  MIC50: 250 to 500 µg/mL (≈ 1.64 to 3.28 mM)
  MIC90: 1000 to 2000 µg/mL (≈ 6.57 to 13.1 mM)
  MIC: 2000 µg/mL (≈ 13.1 mM)
[4]
  MIC50: 500 to 1000 µg/mL (≈ 3.28 to 6.57 mM)
  MIC90: 1000 to 2000 µg/mL (≈ 6.57 to 13.1 mM)
  MIC: 2000 µg/mL (≈ 13.1 mM)

## NCCS [Cysteamine Hydrochloride (Cyst HCl), Cysteamine hydrochloride]
[5]; [10]
  FICI (Additive) Cip: 0.75 and 0.52 and 0.56
[5]; in combination with Colistin
  FICI (Additive) Col: 0.5
[5]; in combination with Gentamicin
  FICI (Additive) Gent: 0.75 and 0.5
[5]; in combination with Tobramycin
  FICI (Additive) Tob: 0.51 and 0.53 and 0.5
  FICI (Synergy) Tob: 0.25 and 0.31 and 0.38 and 0.28 and 0.19
[6]; [10]
  FICI (Additive) Cip: 0.56 and 0.63 and 0.5
  FICI (Synergy) Cip: 0.31 and 0.37 and 0.38
[6]; in combination with Colistin
  FICI (Additive) Col: 0.51 and 0.5 and 0.53 and 0.52
[6]; in combination with Gentamicin
  FICI (Additive) Gent: 0.5 and 0.63 and 0.56
[6]; in combination with Tobramycin
  FICI (Additive) Tob: 0.63 and 0.75 and 0.5
[7]; [10]
  FICI (Additive) Cip: 0.53 and 0.63 and 0.75 and 0.56
[7]; in combination with Colistin
  FICI (Additive) Col: 0.52 and 0.75 and 0.56 and 0.5
  FICI (Synergy) Col: 0.38
[7]; in combination with Gentamicin
  FICI (Additive) Gent: 0.75
[8]; [10]
  FICI (Additive) Cip: 0.53 and 0.5 and 0.63 and 0.56 and 0.75
  FICI (Synergy) Cip: 0.19 and 0.25
[8]; in combination with Colistin
  FICI (Additive) Col: 0.53 and 0.52 and 0.5
  FICI (Synergy) Col: 0.25 and 0.31 and 0.19 and 0.26
[8]; in combination with Gentamicin
  FICI (Additive) Gent: 0.63
[8]; in combination with Tobramycin
  FICI (Additive) Tob: 0.63 and 0.75
[9]; [10]
  FICI (Additive) Cip: 0.56 and 0.53
  FICI (Synergy) Cip: 0.31 and 0.38
[9]; in combination with Colistin
  FICI (Additive) Col: 0.52 and 0.53
  FICI (Synergy) Col: 0.19 and 0.28 and 0.25 and 0.31
[9]; in combination with Gentamicin
  FICI (Additive) Gent: 0.53 and 0.52
[9]; in combination with Tobramycin
  FICI (Additive) Tob: 0.51 and 0.5
  FICI (Synergy) Tob: 0.25 and 0.31 and 0.19

## NCCS(=O)(=O)O [Taurine, taurine]
[1]
  MIC50: > 2000 µg/mL
  MIC90: > 2000 µg/mL
  MIC: > 2000 µg/mL
[2]
  MIC50: > 2000 µg/mL
  MIC90: > 2000 µg/mL
  MIC: > 2000 µg/mL
[3]
  MIC50: > 2000 µg/mL
  MIC90: > 2000 µg/mL
  MIC: > 2000 µg/mL
[4]
  MIC50: > 2000 µg/mL
  MIC90: > 2000 µg/mL
  MIC: > 2000 µg/mL
